{
  "source": "patent US20130041036A1",
  "about": "“FERULIC ACID AS FEED SUPPLEMENT IN BEEF CATTLE TO PROMOTE ANIMAL GROWTH AND IMPROVE THE MEAT QUALITY OF THE CARCASS AND THE MEAT” (BIOKAB, S.A. DE C.V., priority 2011, published 2013)",
  "tested_on": "beef cattle",
  "test": "Feedlot performance and carcass quality of beef cattle",
  "assay_type": "in vivo, beef cattle of commercial breeds",
  "details": "for CCW: cold carcass weight: carcass 24 hr at 0° C.; for PH45: pH at 45 min postmortem: Longissimus dorsi",
  "text": "In this study, all animals received the same prophylactic management, and all were subsequently assigned randomly to one of the following four treatments (25 animals per treatment, divided into pens of 5 experimental units per pen):\nDefinition of the 4 Treatments\nTreatment 1 (Control): control animals (receiving only the basal diet without supplementation of the additive).\nTreatment 2 (Ferulic Acid for 30 days=FA30): Animals receiving the basal diet supplemented with 240 ppm of ferulic acid during the last 30 days of the fattening period.\nTreatment 3 (Ferulic Acid for 60 days=FA60): Animals receiving the basal diet supplemented with 240 ppm of ferulic acid during the last 60 days of the fattening period.\nTreatment 4 (Zilmax commercial Zilpaterp; =ZX): Animals receiving the basal diet and supplemented with 6 ppm hydrochloride zilpaterol during the last 30 days of the fattening period.\nDuring the experimental phase, all animals received a feeding ration consisting of 20% fodder and 80% concentrate. The crop was corn stover, while the concentrate consisted of different proportions of rolled corn grain, soybean meal, canola meal, distillery grains, and molasses. The ration was provided twice a day, and there was free access to the food and drinking water.\nInitial and final live weight was recorded in the productive performance trial. The performance test lasted 60 days. Daily feed intake was evaluated, weight was recorded at the beginning and end of experimental period, in order to estimate the average daily gain and feed conversion.\nBefore concluding the performance test, 2 animals were randomly selected per pen (10 per treatment) for humanitarian slaughter. The animals were sacrificed following the standard procedures of the official Mexican standards in the municipal slaughterhouse of Guadalajara, Jalisco. Animal live weight was recorded before slaughter.\nDuring the slaughter process, the pH of the carcass at 45 min postmortem in the Longissimus dorsi muscle (LD) was measured and the weight of the hot carcass was recorded. The carcasses were refrigerated at 0° C. for 24 hr. After this, the final pH was measured and cold carcass weight recorded, and the classification of carcasses was carried out, recording the Rib eye area (REA) in square inches, back fat thickness (BFT) in mm, and the marbling in the 12th intercostal space of the LD; the skeletal maturity and conformation of the carcass was also evaluated (10 carcasses per treatment). The assessment of quality of the carcass was made following the procedures described by the US Department of Agriculture (USDA, 2000).\nAll data for response variables of the quality of carcass and meat were analyzed under a completely randomized design, with a one-way ANOVA, taking the experimental treatments as a fixed effect. For carcass BFT and REA characteristics the hot carcass weight was used as a covariable. Regarding the sensory attributes, the model also included the effect of panelist as the repeated measure. The variables of the shelf life study were analyzed as a completely randomized design with factorial arrangement, factor A being the treatment with 4 levels, and factor B, the storage time with 5 levels. When there were statistical differences (P<0.05) between treatments, average comparisons were performed by the multiple range test of Tukey. All data was processed in the NCSS statistical package (NCSS, 2001).",
  "key": {"[1]": {"details": "240 ppm ferulic acid (FA30) or 6 ppm zilpaterol hydrochloride (ZX) in diet, last 30 days of fattening"}, "[2]": {"details": "240 ppm ferulic acid (FA30) or 6 ppm zilpaterol hydrochloride (ZX), last 30 days of fattening"}, "[3]": {"details": "240 ppm ferulic acid in diet, last 60 days of fattening (FA60)"}, "[4]": {"details": "240 ppm ferulic acid, last 60 days of fattening (FA60)"}},
  "note": "Marks after values point to notes of the source that are not given here.",
  "data": [
    {"compound": "COc1cc(/C=C/C(=O)O)ccc1O", "note": "[ferulic acid, trans-4-hydroxy-3-methoxy cinnamic acid]", "values": [
      {"measurement": "FW: final weight", "setting": "[1]", "result": 553.5, "unit": "kg"},
      {"measurement": "HCW: hot carcass weight", "setting": "[1]", "result": 336.42, "unit": "kg"},
      {"measurement": "CCW: cold carcass weight", "setting": "[1]", "result": 331.13, "unit": "kg"},
      {"measurement": "BFT: back fat thickness", "setting": "[2]", "result": 4.29, "unit": "mm"},
      {"measurement": "PH24: pH at 24 h postmortem", "setting": "[2]", "result": 5.63},
      {"measurement": "REA: rib eye area", "setting": "[2]", "result": 14.54, "unit": "Inch^2"},
      {"measurement": "CY: carcass yield", "setting": "[3]", "result": "59.85^ab %"},
      {"measurement": "FW: final weight", "setting": "[3]", "result": 551.9, "unit": "kg"},
      {"measurement": "HCW: hot carcass weight", "setting": "[3]", "result": 330.42, "unit": "kg"},
      {"measurement": "CCW: cold carcass weight", "setting": "[3]", "result": 325.42, "unit": "kg"},
      {"measurement": "BFT: back fat thickness", "setting": "[4]", "result": 4.38, "unit": "mm"},
      {"measurement": "PH24: pH at 24 h postmortem", "setting": "[4]", "result": 5.61},
      {"measurement": "REA: rib eye area", "setting": "[4]", "result": 14.21, "unit": "Inch^2"},
      {"measurement": "PH45: pH at 45 min postmortem", "setting": "[2]", "result": "6.54^b"},
      {"measurement": "PH45: pH at 45 min postmortem", "setting": "[4]", "result": "6.33^ab"}
    ]}
  ]
}
